According to the NIST ThermoML archive (doi:10.1021/acs.jced.9b00846):

Conditions: Liquid, Vibrating tube method

CC(C)CC(C)C [2,4-dimethylpentane]
Conditions | mass density [kg/m3]
283.15 K, 95 kPa | 681.7
283.15 K, 4961 kPa | 686.3
283.15 K, 9969 kPa | 690.9
283.15 K, 14980 kPa | 695.1
283.15 K, 19985 kPa | 699.1
283.15 K, 25039 kPa | 702.9
283.15 K, 30016 kPa | 706.5
283.15 K, 35089 kPa | 710
283.15 K, 40016 kPa | 713.3
283.15 K, 45012 kPa | 716.4
283.15 K, 49972 kPa | 719.5
283.15 K, 54980 kPa | 722.4
283.15 K, 59931 kPa | 725.3
283.15 K, 65047 kPa | 728.1
288.15 K, 127 kPa | 677.3
288.15 K, 4984 kPa | 682.2
288.15 K, 9987 kPa | 686.8
288.15 K, 14976 kPa | 691.2
288.15 K, 19996 kPa | 695.3
288.15 K, 24895 kPa | 699.2
288.15 K, 30002 kPa | 703
288.15 K, 34983 kPa | 706.5
288.15 K, 40000 kPa | 709.9
288.15 K, 44974 kPa | 713.1
288.15 K, 49950 kPa | 716.2
288.15 K, 55010 kPa | 719.3
288.15 K, 60065 kPa | 722.2
288.15 K, 64958 kPa | 725
293.15 K, 83 kPa | 672.8
293.15 K, 4982 kPa | 677.9
293.15 K, 9969 kPa | 682.7
293.15 K, 15059 kPa | 687.3
293.15 K, 19914 kPa | 691.5
293.15 K, 25056 kPa | 695.6
293.15 K, 29936 kPa | 699.3
293.15 K, 34976 kPa | 703
293.15 K, 39994 kPa | 706.4
293.15 K, 44992 kPa | 709.8
293.15 K, 50030 kPa | 713
293.15 K, 54953 kPa | 716
293.15 K, 59933 kPa | 719
293.15 K, 65045 kPa | 721.9
298.15 K, 92 kPa | 668.3
298.15 K, 4941 kPa | 673.6
298.15 K, 9982 kPa | 678.6
298.15 K, 14991 kPa | 683.3
298.15 K, 19963 kPa | 687.6
298.15 K, 25048 kPa | 691.8
298.15 K, 29972 kPa | 695.7
298.15 K, 34945 kPa | 699.4
298.15 K, 39958 kPa | 702.9
298.15 K, 45007 kPa | 706.4
298.15 K, 49963 kPa | 709.6
298.15 K, 55008 kPa | 712.8
298.15 K, 60003 kPa | 715.8
298.15 K, 65017 kPa | 718.8
303.15 K, 72 kPa | 663.8
303.15 K, 4969 kPa | 669.3
303.15 K, 9974 kPa | 674.5
303.15 K, 14963 kPa | 679.3
303.15 K, 19981 kPa | 683.9
303.15 K, 25047 kPa | 688.2
303.15 K, 29954 kPa | 692.1
303.15 K, 34987 kPa | 695.9
303.15 K, 39964 kPa | 699.6
303.15 K, 45006 kPa | 703.1
303.15 K, 49991 kPa | 706.4
303.15 K, 55060 kPa | 709.7
303.15 K, 59991 kPa | 712.8
303.15 K, 65054 kPa | 715.8
308.15 K, 100 kPa | 659.4
308.15 K, 4987 kPa | 665.1
308.15 K, 9965 kPa | 670.4
308.15 K, 15040 kPa | 675.5
308.15 K, 19960 kPa | 680.1
308.15 K, 24964 kPa | 684.4
308.15 K, 30076 kPa | 688.7
308.15 K, 34985 kPa | 692.5
308.15 K, 39972 kPa | 696.2
308.15 K, 44972 kPa | 699.8
308.15 K, 49955 kPa | 703.2
308.15 K, 54996 kPa | 706.5
308.15 K, 60063 kPa | 709.7
308.15 K, 65021 kPa | 712.7
313.15 K, 108 kPa | 654.9
313.15 K, 5004 kPa | 660.8
313.15 K, 10013 kPa | 666.4
313.15 K, 15049 kPa | 671.6
313.15 K, 19963 kPa | 676.3
313.15 K, 25062 kPa | 680.9
313.15 K, 29960 kPa | 685
313.15 K, 34942 kPa | 689
313.15 K, 40039 kPa | 692.9
313.15 K, 45017 kPa | 696.6
313.15 K, 50065 kPa | 700.1
313.15 K, 54977 kPa | 703.4
313.15 K, 59923 kPa | 706.6
313.15 K, 64996 kPa | 709.7
318.15 K, 110 kPa | 650.2
318.15 K, 5061 kPa | 656.5
318.15 K, 9957 kPa | 662.2
318.15 K, 15002 kPa | 667.6
318.15 K, 19980 kPa | 672.5
318.15 K, 25013 kPa | 677.1
318.15 K, 30045 kPa | 681.5
318.15 K, 34965 kPa | 685.6
318.15 K, 39938 kPa | 689.5
318.15 K, 44971 kPa | 693.2
318.15 K, 49989 kPa | 696.8
318.15 K, 55009 kPa | 700.2
318.15 K, 59952 kPa | 703.5
318.15 K, 65056 kPa | 706.7
323.15 K, 121 kPa | 645.6
323.15 K, 5001 kPa | 652.1
323.15 K, 10007 kPa | 658.1
323.15 K, 15037 kPa | 663.6
323.15 K, 19969 kPa | 668.7
